Measured values taken from patent US9340577B2, “HLA binding motifs and peptides and their uses” (priority 1992, dated 2016).
No end group written: not given here.

Key:
Test in all cases: biochemical
DRB1*1501 = DRB1*1501 (Homo sapiens, UniProt P01903+P01911); type: binding
DRB4*0101 = DRB4*0101 (Homo sapiens, UniProt P01903+P13762, G164S); type: binding
DR1 (DRB1*0101) = DR1 (DRB1*0101) (Homo sapiens, UniProt P01903+P01911, A100R/D57E/F55L/F60I/F76Y/I96L/L162R/M171V/P40L/Q125E/R42F/V115G/Y59C); type: binding
DRB1*1201 = DRB1*1201 (Homo sapiens, UniProt P01903+P01911, A100R/A169T/D57E/D86V/F55L/H45Y/K41T/L162R/M171V/P40S/Q125H/Q178H/Q39Y/Q99D/R42G/S66L/T262R/V114A/V67L/W38E/Y59H/Y61H/Y89S); type: binding
DRB1*0405 = DRB1*0405 (Homo sapiens, UniProt P01903+P01911, A100R/A169T/D86S/F76Y/I96L/K127E/L162R/M171V/N62H/P40V/Q125Y/R42H/S133A/S149N/S66Y/V115G/V209L/W38E); type: binding
DRB1*1101 = DRB1*1101 (Homo sapiens, UniProt P01903+P01911, A100R/A169T/A87E/I96F/K41T/L162R/M171V/P40S/Q125H/Q178H/Q39Y/Q99D/R42S/S66Y/T262R/V115G/W38E); details: Binding affinity DRB1 *1101
Chain of DRB1*1101 (P01903 26-254 limits assumed, other chains not shown): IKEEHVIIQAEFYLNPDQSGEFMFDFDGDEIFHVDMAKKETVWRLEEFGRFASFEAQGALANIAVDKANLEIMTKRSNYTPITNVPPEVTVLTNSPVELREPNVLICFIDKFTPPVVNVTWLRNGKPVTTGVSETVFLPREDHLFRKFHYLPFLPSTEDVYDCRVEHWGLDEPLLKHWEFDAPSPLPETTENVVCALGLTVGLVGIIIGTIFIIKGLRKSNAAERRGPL

DRB1*1302 = DRB1*1302 (Homo sapiens, UniProt P01903+P01911, A100E/A169T/K41T/L162R/M171V/P40S/Q125H/Q178H/Q39Y/Q99D/R42S/S66N/T262R/V115G/W38E/Y61H); type: binding
Chain of DRB1*1302 (P01903 26-254 limits assumed, other chains not shown): as above

DRB1*0802 = DRB1*0802 (Homo sapiens, UniProt P01903+P01911, A100R/A103L/A169T/F76Y/H45Y/I96F/K41T/L162R/M171V/P40S/Q125H/Q178H/Q39Y/Q99D/R218S/R42G/S66Y/V115G/W38E); type: binding
DRB5*0101 = DRB5*0101 (Homo sapiens, UniProt P01903+Q30154); details: Binding affinity DRB5 *0101
DRB1*0901 = DRB1*0901 (Homo sapiens, UniProt P01903+P01911, A100R/A103E/D57H/D86V/F55Y/F60I/F76Y/I96F/K127E/L162R/M171V/P40D/Q125H/Q99R/R33Q/R42F/S133A/S66N/T210M/V115G/W38K/Y107V/Y59G/Y89S); type: binding
DR7 (DRB1*0701) = DR7 (DRB1*0701) (Homo sapiens, UniProt P01903+P01911, A100R/A102G/A103Q/D57E/D86V/E43K/F76Y/K127E/L162R/M171V/P40G/Q125H/Q99D/R33Q/R42Y/R54Q/S133A/S66F/T210M/V115G/Y107V/Y59L/Y89S); type: binding
DRB3*0101 = DRB3*0101 (Homo sapiens, UniProt P01903+P79483); type: binding
DR4w4 (DRB1*0401) = DR4w4 (DRB1*0401) (Homo sapiens, UniProt P01903+P01911, A100K/A169T/F76Y/I96L/K127E/L162R/M171V/N62H/P40V/Q125Y/R42H/S133A/S149N/S66Y/V115G/V209L/W38E); type: binding

Sequence | IC50 (DRB1*1501) [µM] | IC50 (DRB4*0101) [µM] | IC50 (DR1 (DRB1*0101)) [µM] | IC50 (DRB1*1201) [µM] | IC50 (DRB1*0405) [µM] | IC50 (DRB1*1101) [µM] | IC50 (DRB1*1302) [µM] | IC50 (DRB1*0802) [µM] | IC50 (DRB5*0101) [µM] | IC50 (DRB1*0901) [µM] | IC50 (DR7 (DRB1*0701)) [µM] | IC50 (DRB3*0101) [µM] | IC50 (DR4w4 (DRB1*0401)) [µM]
EYILDLHPEPTDLFC [Peptide 1543.51] | > 20 | 0.0082 | 0.189 | 2.6 | 1.14 | 19.5 | 4.75 | 16.3 | > 20 | > 20 | > 20 | 0.083 | –
GQRVPVSHSFPHPLY [Peptide 68.0005] | – | – | – | 5.51 | – | > 20 | – | > 20 | > 20 | – | – | > 20 | > 20
GRAVCGGVLVHPQWV [Peptide 68.0062] | – | – | – | 16.4 | – | > 20 | – | > 20 | – | – | – | > 20 | > 20
KSRLQGGVLVNEILN [Peptide 68.0046] | > 20 | – | – | 9.6 | – | > 20 | – | > 20 | > 20 | – | – | > 20 | > 20
LSGLHGQDLFGIWSK [Peptide 68.0040] | > 20 | – | – | 7.89 | – | > 20 | > 20 | > 20 | > 20 | > 20 | > 20 | > 20 | > 20
PEEFLRPRSLQCVSL [Peptide 68.0015] | – | – | – | 6.02 | – | – | – | – | > 20 | – | – | > 20 | > 20
QWVLTAAHCLKKNSQ [Peptide 68.0004] | > 20 | – | – | > 20 | – | – | > 20 | > 20 | – | – | – | > 20 | > 20
SADDLRAFQQLFLNT [Peptide 1543.07] | – | 0.27 | 0.295 | 0.305 | 0.411 | 3.59 | 3.13 | 7 | > 20 | 0.559 | 0.124 | > 20 | –
